In patent publication US20240025884A1 (Dong-A ST Co., Ltd., priority 2022, published 2024):

molecular target: GCN2 (Homo sapiens (Human), UniProt Q9P2K8); assay: GCN2 Biochemical Assay (TR-FRET, GFP-eIF2S1 substrate phosphorylation); details: read-out: IC50 (GCN2 Inhibitory Activity)
Protocol: Experimental Example 1: GCN2 Biochemical Assay
An inhibitory effect of the inventive compound on GCN2 was identified as follows.
384-well (Greiner #784075) (or 1536-well [Greiner #782075]) plates containing 60 nl (or 20 nl for 1536-well) of compound in 100% DMSO (10 concentrations serially diluted 3.16-fold) were prepared. Two copies of plates were used—one for the GCN2 assay and a second for an artifact plate. Working reagents were prepared as follows—reaction buffer: Tris pH 7.5 20 mM, MgCl2 5 mM, DTT 1 mM, Brij-35 0.005%, EGTA 0.5 mM in water; 2× enzyme solution: GCN2 (produced in-house) 1.6 nM in reaction buffer; 2× substrate solution: GFP-eIFS1 (Thermo Fisher Scientific, PV4809) 50 nM, ATP 0.2 mM, tRNA 0.4 mg/ml in reaction buffer; p-GFP-eIF2S1 (artifact) solution: p-GFP-eIFS1 (produced by incubation of 100 nM GFP-eIF2S1 in reaction buffer with 100 uM ATP and 1 nM PERK KD enzyme for 3 hr at room temperature) 2 nM in reaction buffer; 3× stop/antibody solution: p-GFP-EIF2S1 Th-Ab (Thermo Fisher Scientific, PV4816) 6 nM, AZ13933939 3 uM, BSA 3% in reaction buffer. Reagents were loaded onto a liquid dispenser (Certus FLEX, Trajan Scientific and Medical), and 3 ul (1 ul for 1536-well) of 2× enzyme solution, followed by 3 ul (1 ul for 1536-well) of 2× substrate solution was added to the plates. When small numbers of plates were processed, the enzyme solution was added first to all plates, then the valve used for the substrate solution was primed immediately prior to use. Plates were tapped or spun 1 min/1K/RT to ensure proper mixing, followed by incubation at room temperature for 70 mins, covered/stacked in the dark. For the artifact plate, 6 ul of p-GFP-eIF2S1 solution was added prior to adding the stop/antibody solution. 3 ul (1 ul for 1536-well) of 3× stop/antibody solution was added to the plates, followed by a spin-down for 1 min/1K/RT, and incubation for 2-3 hr, sealed or covered with lids in the dark at room temperature. Plates were read on a plate reader (PHERAstar FSX, BMF Labtech) at Ex 340/Em 490/Em 520 nm.

Chain of GCN2 (Q9P2K8 whole entry): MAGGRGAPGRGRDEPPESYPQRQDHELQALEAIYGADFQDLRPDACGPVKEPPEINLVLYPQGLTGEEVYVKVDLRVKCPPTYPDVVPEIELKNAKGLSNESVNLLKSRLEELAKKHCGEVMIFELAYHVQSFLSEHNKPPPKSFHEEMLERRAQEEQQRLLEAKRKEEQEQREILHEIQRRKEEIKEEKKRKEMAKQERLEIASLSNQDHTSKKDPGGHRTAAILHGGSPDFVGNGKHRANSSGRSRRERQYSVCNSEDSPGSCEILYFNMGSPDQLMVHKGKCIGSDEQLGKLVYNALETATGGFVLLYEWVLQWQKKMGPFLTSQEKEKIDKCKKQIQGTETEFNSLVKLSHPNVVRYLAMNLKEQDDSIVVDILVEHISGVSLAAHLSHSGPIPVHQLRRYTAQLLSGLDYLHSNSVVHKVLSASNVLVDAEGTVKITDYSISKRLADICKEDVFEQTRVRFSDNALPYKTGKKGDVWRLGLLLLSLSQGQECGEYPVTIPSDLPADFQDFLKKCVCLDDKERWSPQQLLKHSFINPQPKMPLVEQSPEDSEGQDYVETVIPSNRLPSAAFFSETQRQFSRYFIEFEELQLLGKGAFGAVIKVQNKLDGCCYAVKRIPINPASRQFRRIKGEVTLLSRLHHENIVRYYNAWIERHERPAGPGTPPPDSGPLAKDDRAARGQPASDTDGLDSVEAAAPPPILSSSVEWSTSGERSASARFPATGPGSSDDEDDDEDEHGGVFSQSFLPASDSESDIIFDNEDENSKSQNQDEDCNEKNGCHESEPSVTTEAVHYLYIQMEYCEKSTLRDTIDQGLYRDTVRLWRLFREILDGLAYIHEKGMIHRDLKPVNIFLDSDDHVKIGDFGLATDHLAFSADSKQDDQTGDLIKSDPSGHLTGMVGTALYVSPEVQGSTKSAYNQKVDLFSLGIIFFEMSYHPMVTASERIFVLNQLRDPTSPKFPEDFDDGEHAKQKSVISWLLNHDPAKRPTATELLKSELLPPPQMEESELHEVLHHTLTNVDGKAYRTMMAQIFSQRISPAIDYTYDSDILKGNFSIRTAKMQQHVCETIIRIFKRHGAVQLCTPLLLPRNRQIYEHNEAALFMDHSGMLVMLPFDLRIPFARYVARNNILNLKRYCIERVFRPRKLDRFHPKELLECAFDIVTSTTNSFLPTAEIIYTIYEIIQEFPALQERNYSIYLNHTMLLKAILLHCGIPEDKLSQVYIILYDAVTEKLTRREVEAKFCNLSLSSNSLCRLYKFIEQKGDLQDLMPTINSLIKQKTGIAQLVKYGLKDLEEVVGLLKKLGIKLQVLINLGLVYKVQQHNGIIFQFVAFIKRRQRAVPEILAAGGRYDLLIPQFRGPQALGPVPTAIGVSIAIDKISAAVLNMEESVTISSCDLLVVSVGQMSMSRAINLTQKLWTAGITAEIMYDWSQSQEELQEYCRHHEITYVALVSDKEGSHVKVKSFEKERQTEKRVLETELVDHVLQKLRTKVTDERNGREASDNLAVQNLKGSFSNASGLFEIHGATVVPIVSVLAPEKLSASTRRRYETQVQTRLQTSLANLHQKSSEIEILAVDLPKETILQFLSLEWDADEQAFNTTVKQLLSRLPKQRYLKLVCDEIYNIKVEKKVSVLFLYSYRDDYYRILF

| IC50 [nM] | Structure (SMILES) |
| --- | --- |
| 100 to 1000 | Cc1cnc(Nc2cc(C)n(C)n2)nc1-c1c[nH]c2c(NC(=O)CN3CC[C@H](CC#N)C3)cccc12 [Example 46, (R)-2-(3-(cyanomethyl)pyrrolidin-1-yl)-N-(3-(2-((1,5-dimethyl-1H-pyrazol-3-yl)amino)-5-methylpyrimidin-4-yl)-1H-indol-7-yl)acetamide] |
| 10 to 100 | Cc1cnc(Nc2cc(C)n(C)n2)nc1-c1c[nH]c2c(NC(=O)CN3C[C@@H](F)[C@@H](O)C3)cccc12 [Example 50, N-(3-(2-((1,5-dimethyl-1H-pyrazol-3-yl)amino)-5-methylpyrimidin-4-yl)-1H-indol-7-yl)-2-((3R,4S)-3-fluoro-4-hydroxypyrrolidin-1-yl)acetamide] |
| < 10 | Cc1cnc(Nc2cc(C)n(C)n2)nc1-c1c[nH]c2c(NC(=O)CN3C[C@@H](F)[C@H](Oc4ccnc(NC5CC5)n4)C3)cccc12 [Example 53, 2-((3R,4R)-3-((2-(cyclopropylamino)pyrimidin-4-yl)oxy)-4-fluoropyrrolidin-1-yl)-N-(3-(2-((1,5-dimethyl-1H-pyrazol-3-yl)amino)-5-methylpyrimidin-4-yl)-1H-indol-7-yl)acetamide] |
| 10 to 100 | Cc1cnc(Nc2cc(C)n(C)n2)nc1-c1c[nH]c2c(NC(=O)CN3C[C@@H](Oc4ccnc(NC5CC5)n4)C[C@H]3C(=O)O)cccc12 [Example 56, (2S,4S)-4-((2-(cyclopropylamino)pyrimidin-4-yl)oxy)-1-(2-((3-(2-((1,5-dimethyl-1H-pyrazol-3-yl)amino)-5-methylpyrimidin-4-yl)-1H-indol-7-yl)amino)-2-oxoethyl)pyrrolidine-2-carboxylic acid] |
| < 10 | Cc1cnc(Nc2cc(C)n(C)n2)nc1-c1c[nH]c2c(NC(=O)CN3C[C@@H](Oc4ccnc(NC5CC5)n4)C[C@H]3C(N)=O)cccc12 [Example 58, (2S,4S)-4-((2-(cyclopropylamino)pyrimidin-4-yl)oxy)-1-(2-((3-(2-((1,5-dimethyl-1H-pyrazol-3-yl)amino)-5-methylpyrimidin-4-yl)-1H-indol-7-yl)amino)-2-oxoethyl)pyrrolidine-2-carboxamide] |
| 10 to 100 | Cc1cnc(Nc2cc(C)n(C)n2)nc1-c1c[nH]c2c(NC(=O)CN3CC[C@H](Oc4ccnc(NC5CC5)n4)C3=O)cccc12 [Example 60, (S)-2-(3-((2-(cyclopropylamino)pyrimidin-4-yl)oxy)-2-oxopyrrolidin-1-yl)-N-(3-(2-((1,5-dimethyl-1H-pyrazol-3-yl)amino)-5-methylpyrimidin-4-yl)-1H-indol-7-yl)acetamide] |
| 100 to 1000 | Cc1cnc(Nc2cc(C)n(C)n2)nc1-c1c[nH]c2c(NC(=O)CN3CC[C@H](C(=O)N4CCOCC4)C3)cccc12 [Example 63, (S)-N-(3-(2-((1,5-dimethyl-1H-pyrazol-3-yl)amino)-5-methylpyrimidin-4-yl)-1H-indol-7-yl)-2-(3-(morpholine-4-carbonyl)pyrrolidin-1-yl)acetamide] |

The remaining lines, values behind:

| Structure (SMILES) | IC50 [nM] |
| --- | --- |
| Cc1cnc(Nc2cc(C)n(C)n2)nc1-c1c[nH]c2c(NC(=O)CN3CCC(CC#N)C3)cccc12 (stereo not drawn) [Example 45, 2-(3-(cyanomethyl)pyrrolidin-1-yl)-N-(3-(2-((1,5-dimethyl-1H-pyrazol-3-yl)amino)-5-methylpyrimidin-4-yl)-1H-indol-7-yl)acetamide] | 100 to 1000 |
| Cc1cnc(Nc2cc(C)n(C)n2)nc1-c1c[nH]c2c(NC(=O)CN3CC[C@H](Nc4ccncn4)C3)cccc12 [Example 47, (S)-N-(3-(2-((1,5-dimethyl-1H-pyrazol-3-yl)amino)-5-methylpyrimidin-4-yl)-1H-indol-7-yl)-2-(3-(pyrimidin-4-ylamino)pyrrolidin-1-yl)acetamide] | 10 to 100 |
| Cc1cnc(Nc2cc(C)n(C)n2)nc1-c1c[nH]c2c(NC(=O)CN3CC[C@@H](Nc4ccncn4)C3)cccc12 [Example 48, (R)-N-(3-(2-((1,5-dimethyl-1H-pyrazol-3-yl)amino)-5-methylpyrimidin-4-yl)-1H-indol-7-yl)-2-(3-(pyrimidin-4-ylamino)pyrrolidin-1-yl)acetamide] | 10 to 100 |
| Cc1cnc(Nc2cc(C)n(C)n2)nc1-c1c[nH]c2c(NC(=O)CN3CC[C@@H](Nc4ccncc4)C3)cccc12 [Example 49, (R)-N-(3-(2-((1,5-dimethyl-1H-pyrazol-3-yl)amino)-5-methylpyrimidin-4-yl)-1H-indol-7-yl)-2-(3-(pyridin-4-ylamino)pyrrolidin-1-yl)acetamide] | 10 to 100 |
| Cc1cnc(Nc2cc(C)n(C)n2)nc1-c1c[nH]c2c(NC(=O)CN3C[C@@H](F)[C@H](Oc4ccncc4)C3)cccc12 [Example 51, N-(3-(2-((1,5-dimethyl-1H-pyrazol-3-yl)amino)-5-methylpyrimidin-4-yl)-1H-indol-7-yl)-2-((3R,4R)-3-fluoro-4-(pyridin-4-yloxy)pyrrolidin-1-yl)acetamide] | 10 to 100 |
| Cc1cnc(Nc2cc(C)n(C)n2)nc1-c1c[nH]c2c(NC(=O)CN3C[C@H](F)[C@H](Oc4ccnc(NC5CC5)n4)C3)cccc12 [Example 52, 2-((3R,4S)-3-((2-(cyclopropylamino)pyrimidin-4-yl)oxy)-4-fluoropyrrolidin-1-yl)-N-(3-(2-((1,5-dimethyl-1H-pyrazol-3-yl)amino)-5-methylpyrimidin-4-yl)-1H-indol-7-yl)acetamide] | < 10 |
| Cc1cnc(Nc2cc(C)n(C)n2)nc1-c1c[nH]c2c(NC(=O)CN3C[C@@H](F)[C@@H](Oc4ccnc(NC5CC5)n4)C3)cccc12 [Example 54, 2-((3S,4R)-3-((2-(cyclopropylamino)pyrimidin-4-yl)oxy)-4-fluoropyrrolidin-1-yl)-N-(3-(2-((1,5-dimethyl-1H-pyrazol-3-yl)amino)-5-methylpyrimidin-4-yl)-1H-indol-7-yl)acetamide] | 10 to 100 |
| COC(=O)[C@@H]1C[C@H](Oc2ccnc(NC3CC3)n2)CN1CC(=O)Nc1cccc2c(-c3nc(Nc4cc(C)n(C)n4)ncc3C)c[nH]c12 [Example 55, methyl (2S,4S)-4-((2-(cyclopropylamino)pyrimidin-4-yl)oxy)-1-(2-((3-(2-((1,5-dimethyl-1H-pyrazol-3-yl)amino)-5-methylpyrimidin-4-yl)-1H-indol-7-yl)amino)-2-oxoethyl)pyrrolidine-2-carboxylate] | < 10 |
| Cc1cnc(Nc2cc(C)n(C)n2)nc1-c1c[nH]c2c(NC(=O)CN3C[C@@H](Oc4ccnc(NC5CC5)n4)C[C@H]3CO)cccc12 [Example 57, 2-((2S,4S)-4-((2-(cyclopropylamino)pyrimidin-4-yl)oxy)-2-(hydroxymethyl)pyrrolidin-1-yl)-N-(3-(2-((1,5-dimethyl-1H-pyrazol-3-yl)amino)-5-methylpyrimidin-4-yl)-1H-indol-7-yl)acetamide] | < 10 |
| Cc1cnc(Nc2cc(C)n(C)n2)nc1-c1c[nH]c2c(NC(=O)CN3C[C@@H](Oc4ccnc(NC5CC5)n4)C[C@H]3CN)cccc12 [Example 59, 2-((2S,4S)-2-(aminomethyl)-4-((2-(cyclopropylamino)pyrimidin-4-yl)oxy)pyrrolidin-1-yl)-N-(3-(2-((1,5-dimethyl-1H-pyrazol-3-yl)amino)-5-methylpyrimidin-4-yl)-1H-indol-7-yl)acetamide] | < 10 |
| Cc1cnc(Nc2cc(C)n(C)n2)nc1-c1c[nH]c2c(NC(=O)CN3C[C@@H](Oc4ccnc(NC5CC5)n4)CC3=O)cccc12 [Example 61, (S)-2-(4-((2-(cyclopropylamino)pyrimidin-4-yl)oxy)-2-oxopyrrolidin-1-yl)-N-(3-(2-((1,5-dimethyl-1H-pyrazol-3-yl)amino)-5-methylpyrimidin-4-yl)-1H-indol-7-yl)acetamide] | < 10 |
| Cc1cnc(Nc2cc(C)n(C)n2)nc1-c1c[nH]c2c(NC(=O)CN3CC[C@H](C(=O)N4CCNC(=O)C4)C3)cccc12 [Example 62, (S)-N-(3-(2-((1,5-dimethyl-1H-pyrazol-3-yl)amino)-5-methylpyrimidin-4-yl)-1H-indol-7-yl)-2-(3-(3-oxopiperazine-1-carbonyl)pyrrolidin-1-yl)acetamide] | 100 to 1000 |
| Cc1cnc(Nc2cc(C)n(C)n2)nc1-c1c[nH]c2c(NC(=O)CN3CC[C@H](C(=O)N4CCSCC4)C3)cccc12 [Example 64, (S)-N-(3-(2-((1,5-dimethyl-1H-pyrazol-3-yl)amino)-5-methylpyrimidin-4-yl)-1H-indol-7-yl)-2-(3-(thiomorpholine-4-carbonyl)pyrrolidin-1-yl)acetamide] | 10 to 100 |
| Cc1cnc(Nc2cc(C)n(C)n2)nc1-c1c[nH]c2c(NC(=O)CN3CC[C@@H](C(=O)N4CCN(C)CC4)C3)cccc12 [Example 65, (R)-N-(3-(2-((1,5-dimethyl-1H-pyrazol-3-yl)amino)-5-methylpyrimidin-4-yl)-1H-indol-7-yl)-2-(3-(4-methylpiperazine-1-carbonyl)pyrrolidin-1-yl)acetamide] | 100 to 1000 |
